Experiments:
[1] = Determination of the solubility of the racemic Bahma salt in a given solvent at a given temperature; assay type: physicochemical; conditions: for Solubility 1M HCl: aqueous 1M HCl solution; for Solubility 2M HCl: aqueous 2M HCl solution; for Solubility: n-propanol/water azeotropic mixture; for Solubility Water: pure water
Procedure: Determination of the Solubility
The solubility of a Bahma salt in a given solvent was calculated, for a given temperature and in a given volume of solvent, via the following formula:
[formula] in which mBahma is the mass of the Bahma salt introduced in grams to reach saturation; ρsolvent is the density of the solvent in g.mL^−1; and Vsolvent is the volume of the solvent in mL.
The solubility of the racemic Bahma salt at various temperatures was determined in the n-propanol/water azeotropic mixture (ρ=0.870 g.mL^−1).
The solubility of the racemic Bahma salt at various temperatures was determined in pure water (ρ=1 g.mL^−1), in aqueous 1M HCl solution (ρ=1.017 g.mL^−1) and in aqueous 2M HCl solution (ρ=1.030 g.mL^−1).

[2] = background statement, no test described; cited from earlier work

| SMILES | Solubility 1M HCl ([1]; 20° C.) [%] | Solubility 1M HCl ([1]; 35° C.) [%] | Solubility 1M HCl ([1]; 50° C.) [%] | Solubility 2M HCl ([1]; 20° C.) [%] | Solubility 2M HCl ([1]; 35° C.) [%] | Solubility 2M HCl ([1]; 50° C.) [%] | Solubility ([1]; 20° C.) [%] | Solubility ([1]; 35° C.) [%] | Solubility ([1]; 50° C.) [%] | Solubility Water ([1]; 20° C.) [%] | Solubility Water ([1]; 35° C.) [%] | Solubility Water ([1]; 50° C.) [%] | activity relative to the S(+) enantiomer [2] |
| --- | --- | --- | --- | --- | --- | --- | --- | --- | --- | --- | --- | --- | --- |
| NCC(CC(=O)O)c1ccc(Cl)cc1.O=C(O)C=CC(=O)O (racemic) [racemic Bahma salt, baclofen hydrogen maleate] | 4.51 | 6.86 | 12.54 | 6.48 | 11.44 | 22.24 | 1.49 | 2.80 | 4.81 | 0.75 | 1.00 | 1.78 | – |
| NC[C@H](CC(=O)O)c1ccc(Cl)cc1 [R(−) enantiomer, (R)-4-amino-3-(4-chlorophenyl)butanoic acid] | – | – | – | – | – | – | – | – | – | – | – | – | three times more active than the S(+) enantiomer |
